The values that follow come from patent publication US8729081B2, “Compositions and methods for treating alcohol use disorders, pain and other diseases” (VM Discovery Inc., priority 2008, dated 2014).

Common to all, as to assay type: biochemical
In test [1] the target is T1, PKCε (Homo sapiens, UniProt Q02156).
T1 construct: host or cells: insect cells
The test is described as follows: Kinetic analysis of PKCε inhibition (initial velocity vs ATP, Lineweaver-Burk). Here is the method: FIG. 1. […] (A) Initial velocity (Vi) plotted against ATP concentration at various concentrations of the compound plus vehicle control.
The above in vitro assay can also be used to measure the initial velocity of the kinase reaction, varying the concentrations of ATP (1-60 μM) or S25 peptide substrate (1-500 nM). Values for km and Vmax are calculated for drug- and vehicle-treated samples by linear regression analysis of double reciprocal Lineweaver Burke plots (see Examples).

The target of test [2] is T2, RSK1 (Homo sapiens, UniProt Q15418).
T2 construct: purchased Reaction Biology Corp
The test is described as follows: Kinase profiling. How it is done: [The procedure below names another target; the source lists this target under the same test.] (§1) Kinase profiling was performed using HotSpot technology (Reaction Biology Corp. 11 Malvern, Pa., USA). This technology is a radioisotope-based P81 filter-binding assay. Compound of the present invention were dissolved in pure DMSO to make a 10 mM stock, then diluted in pure DMSO to make a serial dilution based on the IC50 ranges. PKCε (h) (0.4 nM, human recombinant protein expressed in insect cells. Mw=83.7 kDa) and substrate (20 μM peptide substrate, [RFARKGSLRQKNV]) were diluted in the reaction buffer (20 mM HEPES-HCl, pH 7.5, 10 mM MgCl2, 1 mM EGTA, 0.02% Brij35, 0.1 mM Na3VO4, 0.02 mg/ml BSA, 2 mM DTT, and 1% DMSO), and then 5 nL of compound was delivered into PKCε (h) and substrate mixture by acoustic technology using Echo 550 (LabCyte Inc., Sunnyvale, Calif.). The reaction was initiated by the addition of [γ-33P-ATP] into the reaction mixture (final concentration was 10 μM) and stopped after at least 40 min incubation at room temperature. The unreacted free 33P-ATP was washed away before detection.

The target in test [3] is T3, PKCiota (Homo sapiens, UniProt P41743).
T3 construct: purchased Reaction Biology Corp
As to the kind of experiment: Kinase profiling. How it is done:
[The procedure below names another target; the source lists this target under the same test.] as §1

Test [4] concerns the target T4, cMET (Homo sapiens, UniProt P08581).
T4 construct: purchased Reaction Biology Corp
As to the kind of experiment: Kinase profiling. Here is the method: [The procedure below names another target; the source lists this target under the same test.] as §1

The target of test [5] is T5, PKCeta (Homo sapiens, UniProt P24723).
T5 construct: purchased Reaction Biology Corp
The test is described as follows: Kinase profiling. Here is the method:
[The procedure below names another target; the source lists this target under the same test.] as §1

The target of test [6] is T6, MEK1 (Homo sapiens, UniProt Q02750).
T6 construct: purchased Reaction Biology Corp
The test is described as follows: Kinase profiling. Here is the method:
[The procedure below names another target; the source lists this target under the same test.] as §1

The target of test [7] is T7, PKA (Homo sapiens, UniProt P17612).
T7 construct: purchased Reaction Biology Corp
As to the kind of experiment: Kinase profiling. How it is done:
[The procedure below names another target; the source lists this target under the same test.] as §1

Test [8] addresses T8, FYN (Homo sapiens, UniProt P06241).
T8 construct: purchased Reaction Biology Corp
As to the kind of experiment: Kinase profiling. How it is done: [The procedure below names another target; the source lists this target under the same test.] as §1

Test [9] addresses T9, PKCbeta1 (Homo sapiens, UniProt P05771).
T9 construct: purchased Reaction Biology Corp
The test is described as follows: Kinase profiling. Here is the method:
[The procedure below names another target; the source lists this target under the same test.] as §1

Test [10] addresses T10, PKCtheta (Homo sapiens, UniProt Q04759).
T10 construct: purchased Reaction Biology Corp
As to the kind of experiment: Kinase profiling. How it is done:
[The procedure below names another target; the source lists this target under the same test.] as §1

The IC50 is the point on the concentration scale where inhibition reaches its midpoint.

T1 sequence (Q02156 whole entry): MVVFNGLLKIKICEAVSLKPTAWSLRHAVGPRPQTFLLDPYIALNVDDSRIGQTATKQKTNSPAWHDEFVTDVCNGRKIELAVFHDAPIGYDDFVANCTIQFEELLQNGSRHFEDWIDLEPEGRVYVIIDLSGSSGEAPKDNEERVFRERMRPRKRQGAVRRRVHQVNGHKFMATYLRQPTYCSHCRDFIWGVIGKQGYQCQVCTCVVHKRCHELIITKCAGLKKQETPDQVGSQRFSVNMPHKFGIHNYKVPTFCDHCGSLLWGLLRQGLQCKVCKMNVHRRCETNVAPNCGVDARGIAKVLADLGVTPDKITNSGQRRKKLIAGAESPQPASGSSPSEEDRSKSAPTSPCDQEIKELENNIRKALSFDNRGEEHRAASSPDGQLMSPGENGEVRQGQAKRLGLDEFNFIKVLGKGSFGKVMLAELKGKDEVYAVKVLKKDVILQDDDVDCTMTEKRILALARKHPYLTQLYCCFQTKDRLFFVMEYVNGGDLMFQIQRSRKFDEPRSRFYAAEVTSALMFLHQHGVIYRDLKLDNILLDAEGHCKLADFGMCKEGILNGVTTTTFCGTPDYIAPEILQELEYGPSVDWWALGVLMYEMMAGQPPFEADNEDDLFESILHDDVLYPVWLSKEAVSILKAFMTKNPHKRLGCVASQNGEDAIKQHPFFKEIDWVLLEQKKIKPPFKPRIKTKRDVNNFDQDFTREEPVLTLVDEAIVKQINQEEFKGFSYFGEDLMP
T2 sequence (Q15418 whole entry): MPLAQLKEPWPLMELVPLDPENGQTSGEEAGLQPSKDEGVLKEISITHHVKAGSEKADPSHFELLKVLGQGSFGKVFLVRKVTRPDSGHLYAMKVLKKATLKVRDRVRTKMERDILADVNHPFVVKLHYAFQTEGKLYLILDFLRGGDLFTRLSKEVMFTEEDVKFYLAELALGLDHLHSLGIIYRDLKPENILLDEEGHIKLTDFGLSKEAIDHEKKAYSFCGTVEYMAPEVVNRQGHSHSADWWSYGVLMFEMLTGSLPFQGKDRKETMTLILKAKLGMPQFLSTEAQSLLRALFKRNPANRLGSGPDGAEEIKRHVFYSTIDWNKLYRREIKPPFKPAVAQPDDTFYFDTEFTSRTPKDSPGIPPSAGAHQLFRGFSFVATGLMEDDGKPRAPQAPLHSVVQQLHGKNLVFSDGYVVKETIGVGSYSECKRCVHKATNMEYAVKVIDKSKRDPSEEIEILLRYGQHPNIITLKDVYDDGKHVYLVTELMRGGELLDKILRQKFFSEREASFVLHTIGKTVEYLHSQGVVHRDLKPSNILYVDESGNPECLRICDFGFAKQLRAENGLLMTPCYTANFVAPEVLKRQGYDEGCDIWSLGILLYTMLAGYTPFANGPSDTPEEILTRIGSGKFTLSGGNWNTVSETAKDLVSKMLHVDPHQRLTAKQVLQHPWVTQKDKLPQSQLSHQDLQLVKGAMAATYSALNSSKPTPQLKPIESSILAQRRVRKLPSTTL
T6 sequence (Q02750 whole entry): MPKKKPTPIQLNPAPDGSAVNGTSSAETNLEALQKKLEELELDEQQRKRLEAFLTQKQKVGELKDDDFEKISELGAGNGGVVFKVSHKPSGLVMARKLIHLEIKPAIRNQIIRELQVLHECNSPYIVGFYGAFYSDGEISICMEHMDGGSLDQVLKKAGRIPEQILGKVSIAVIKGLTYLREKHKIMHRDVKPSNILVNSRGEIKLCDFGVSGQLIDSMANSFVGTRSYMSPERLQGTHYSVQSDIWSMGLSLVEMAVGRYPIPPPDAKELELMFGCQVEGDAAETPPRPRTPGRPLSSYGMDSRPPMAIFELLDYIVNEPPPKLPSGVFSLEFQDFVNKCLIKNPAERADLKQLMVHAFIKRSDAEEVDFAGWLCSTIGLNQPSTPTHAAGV
T8 sequence (P06241 whole entry): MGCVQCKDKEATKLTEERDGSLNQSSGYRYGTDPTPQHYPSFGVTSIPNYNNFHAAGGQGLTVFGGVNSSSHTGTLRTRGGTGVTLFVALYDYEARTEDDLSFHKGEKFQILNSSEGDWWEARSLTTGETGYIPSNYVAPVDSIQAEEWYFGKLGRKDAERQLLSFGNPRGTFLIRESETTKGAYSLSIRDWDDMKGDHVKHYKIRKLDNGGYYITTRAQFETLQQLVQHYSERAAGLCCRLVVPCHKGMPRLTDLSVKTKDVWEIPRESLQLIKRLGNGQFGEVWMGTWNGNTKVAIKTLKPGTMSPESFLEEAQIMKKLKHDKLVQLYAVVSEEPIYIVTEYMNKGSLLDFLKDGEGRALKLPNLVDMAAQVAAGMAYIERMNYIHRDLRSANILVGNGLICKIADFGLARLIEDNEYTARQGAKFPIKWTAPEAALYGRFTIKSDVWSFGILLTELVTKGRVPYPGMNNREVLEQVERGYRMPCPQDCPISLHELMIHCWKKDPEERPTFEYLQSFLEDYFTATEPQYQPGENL
T9 sequence (P05771 whole entry): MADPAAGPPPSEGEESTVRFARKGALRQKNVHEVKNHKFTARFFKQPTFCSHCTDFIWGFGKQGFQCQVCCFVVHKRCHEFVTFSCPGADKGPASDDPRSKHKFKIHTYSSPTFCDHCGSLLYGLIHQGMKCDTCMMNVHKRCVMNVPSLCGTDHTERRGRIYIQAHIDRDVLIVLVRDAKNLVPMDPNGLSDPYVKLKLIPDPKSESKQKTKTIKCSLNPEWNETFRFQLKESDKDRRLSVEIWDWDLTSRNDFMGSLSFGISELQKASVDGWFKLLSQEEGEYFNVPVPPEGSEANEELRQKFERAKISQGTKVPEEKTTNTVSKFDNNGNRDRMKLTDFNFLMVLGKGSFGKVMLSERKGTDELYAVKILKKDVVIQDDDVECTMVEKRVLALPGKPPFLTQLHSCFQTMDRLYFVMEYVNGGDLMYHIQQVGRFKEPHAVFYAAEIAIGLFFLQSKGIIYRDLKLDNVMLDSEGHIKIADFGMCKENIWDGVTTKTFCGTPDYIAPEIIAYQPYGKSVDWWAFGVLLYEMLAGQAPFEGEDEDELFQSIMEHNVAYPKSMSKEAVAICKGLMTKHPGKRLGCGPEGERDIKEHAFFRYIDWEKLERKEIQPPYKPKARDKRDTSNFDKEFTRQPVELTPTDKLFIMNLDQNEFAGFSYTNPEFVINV
T4 sequence (P08581 25-1390): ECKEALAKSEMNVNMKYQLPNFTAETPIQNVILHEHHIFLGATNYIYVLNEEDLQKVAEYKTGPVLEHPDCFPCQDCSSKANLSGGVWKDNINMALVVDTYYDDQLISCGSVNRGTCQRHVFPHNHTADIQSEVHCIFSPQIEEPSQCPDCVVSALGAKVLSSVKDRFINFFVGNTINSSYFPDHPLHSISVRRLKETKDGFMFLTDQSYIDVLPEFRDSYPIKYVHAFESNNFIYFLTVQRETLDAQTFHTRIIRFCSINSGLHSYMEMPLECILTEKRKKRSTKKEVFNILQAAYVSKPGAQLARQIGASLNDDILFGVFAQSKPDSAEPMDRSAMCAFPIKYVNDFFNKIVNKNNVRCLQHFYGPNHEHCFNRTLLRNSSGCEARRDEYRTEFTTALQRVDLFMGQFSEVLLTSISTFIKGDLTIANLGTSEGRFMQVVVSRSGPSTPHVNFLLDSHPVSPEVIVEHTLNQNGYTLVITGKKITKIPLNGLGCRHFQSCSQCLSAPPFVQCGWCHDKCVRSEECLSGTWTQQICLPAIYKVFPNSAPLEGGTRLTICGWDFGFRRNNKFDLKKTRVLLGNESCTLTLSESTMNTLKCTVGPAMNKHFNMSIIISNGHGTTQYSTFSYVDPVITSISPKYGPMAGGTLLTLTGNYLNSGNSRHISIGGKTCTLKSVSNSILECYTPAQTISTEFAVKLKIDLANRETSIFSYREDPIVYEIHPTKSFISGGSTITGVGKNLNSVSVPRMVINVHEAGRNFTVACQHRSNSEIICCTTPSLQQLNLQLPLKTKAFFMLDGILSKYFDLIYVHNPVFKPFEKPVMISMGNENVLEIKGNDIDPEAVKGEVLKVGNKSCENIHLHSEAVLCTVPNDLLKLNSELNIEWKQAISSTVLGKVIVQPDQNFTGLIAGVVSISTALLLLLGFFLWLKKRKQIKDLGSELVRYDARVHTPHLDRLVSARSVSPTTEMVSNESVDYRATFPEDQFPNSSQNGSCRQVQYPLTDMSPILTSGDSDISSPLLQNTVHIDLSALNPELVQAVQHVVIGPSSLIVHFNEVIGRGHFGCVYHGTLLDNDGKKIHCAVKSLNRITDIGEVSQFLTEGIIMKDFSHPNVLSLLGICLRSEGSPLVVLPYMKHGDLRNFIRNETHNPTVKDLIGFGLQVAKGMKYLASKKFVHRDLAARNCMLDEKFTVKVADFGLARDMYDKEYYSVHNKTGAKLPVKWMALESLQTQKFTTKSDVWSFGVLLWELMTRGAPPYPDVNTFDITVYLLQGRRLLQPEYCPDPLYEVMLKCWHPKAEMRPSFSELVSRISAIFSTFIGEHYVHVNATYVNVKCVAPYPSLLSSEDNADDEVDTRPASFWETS
T3 sequence (P41743 whole entry): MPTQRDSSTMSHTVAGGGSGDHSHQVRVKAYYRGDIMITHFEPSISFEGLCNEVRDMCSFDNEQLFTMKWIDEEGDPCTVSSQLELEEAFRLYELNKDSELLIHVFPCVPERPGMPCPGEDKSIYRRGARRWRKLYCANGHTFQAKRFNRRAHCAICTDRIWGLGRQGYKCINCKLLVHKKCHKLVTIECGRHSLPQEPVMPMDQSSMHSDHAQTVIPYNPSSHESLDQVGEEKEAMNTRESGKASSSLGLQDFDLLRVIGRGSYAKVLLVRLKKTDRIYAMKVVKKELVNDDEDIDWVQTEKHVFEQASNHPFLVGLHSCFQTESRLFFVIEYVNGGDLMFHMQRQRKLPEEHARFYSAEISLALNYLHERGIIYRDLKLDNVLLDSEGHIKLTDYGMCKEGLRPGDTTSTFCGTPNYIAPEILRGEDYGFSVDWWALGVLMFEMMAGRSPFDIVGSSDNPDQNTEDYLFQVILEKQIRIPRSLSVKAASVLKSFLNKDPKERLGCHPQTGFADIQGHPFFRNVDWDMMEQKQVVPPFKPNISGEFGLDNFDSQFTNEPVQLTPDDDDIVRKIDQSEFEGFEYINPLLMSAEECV

Regarding `O=C(NCCCN1CCCC1)c1ccc(/C=C2\Sc3ccccc3N(Cc3ccccc3F)C2=O)cc1` [Compound 481, 4-{(Z/E)-[4-(2-fluorobenzyl)-3-oxo-3,4-dihydro-2H-1,4-benzothiazin-2-ylidene]methyl}-N-[3-(pyrrolidin-1-yl)propyl]benzamide], the “mode of PKCε inhibition with respect to ATP” value in test [1] (FIG. 1, kinetic analysis) is on record as “non-competitively with ATP”. Moreover, the “Vmax and km in Lineweaver-Burk double reciprocal plot” value in [1] (FIG. 1B, various compound concentrations plus vehicle control (4 conditions)) is given as “differences in Vmax but not in km”. For the same compound, the IC50 in test [2], in [3], in test [4], in test [5], in test [6] and in test [7] was over 20 µM throughout. In addition, the IC50 in test [8], in test [9] and in test [10] was over 20 µM in each case.
